Where a SMILES comes first, the peptide text is derived from it. [ ]: non-standard residue; d: D form. hLeu = CC(C)CC[C@H](N)C(=O)O
Biological target: T1, Interleukin-23 receptor (Homo sapiens, UniProt Q5VWK5)
T1 sequence (Q5VWK5 whole entry): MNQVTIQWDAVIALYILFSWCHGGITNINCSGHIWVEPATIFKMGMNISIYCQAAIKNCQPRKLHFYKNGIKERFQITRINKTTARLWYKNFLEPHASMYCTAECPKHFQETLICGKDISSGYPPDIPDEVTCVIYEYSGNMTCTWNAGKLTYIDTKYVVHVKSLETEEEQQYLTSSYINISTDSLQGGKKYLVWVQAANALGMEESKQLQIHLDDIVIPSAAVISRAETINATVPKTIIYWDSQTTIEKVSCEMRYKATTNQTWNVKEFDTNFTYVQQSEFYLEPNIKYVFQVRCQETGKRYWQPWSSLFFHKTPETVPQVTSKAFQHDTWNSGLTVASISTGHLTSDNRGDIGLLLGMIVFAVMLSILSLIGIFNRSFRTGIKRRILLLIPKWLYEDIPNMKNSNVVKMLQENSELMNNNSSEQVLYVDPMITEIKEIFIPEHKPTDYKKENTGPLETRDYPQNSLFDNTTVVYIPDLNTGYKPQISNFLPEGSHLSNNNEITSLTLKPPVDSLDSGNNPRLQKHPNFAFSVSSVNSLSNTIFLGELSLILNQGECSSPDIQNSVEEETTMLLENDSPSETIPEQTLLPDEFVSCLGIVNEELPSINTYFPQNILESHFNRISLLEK
Assay: Inhibition of interleukin-23 binding to human interleukin-23 receptor incubated for 2 hrs by competitive binding ELISA

Row | SMILES | IC50
1 | CC(=O)N[C@@H](CS)C(=O)N[C@@H](CCC(N)=O)C(=O)N[C@H](C(=O)N[C@@H](Cc1c[nH]c2ccccc12)C(=O)N[C@@H](CCC(N)=O)C(=O)N[C@@H](CS)C(=O)N[C@@H](Cc1ccc(O)cc1)C(=O)N1Cc2ccccc2C[C@H]1CC(=O)N[C@@H](CCCNC(=N)N)C(=O)N[C@H](C(=O)N[C@@H](CC(N)=O)C(=O)NCC(=O)NCCOCC(=O)N[C@H](CCCCN)C(N)=O)C(C)C)[C@@H](C)O | > 30000 nM
2 | CC(=O)N[C@@H](CS)C(=O)N[C@@H](CCC(N)=O)C(=O)N[C@H](C(=O)N[C@@H](Cc1c[nH]c2ccccc12)C(=O)N[C@@H](CCC(N)=O)C(=O)N[C@@H](CS)C(=O)N[C@@H](Cc1ccc(O)cc1)C(=O)N[C@H](CC(=O)N[C@@H](CCCNC(=N)N)C(=O)N[C@H](C(=O)N[C@@H](CC(N)=O)C(=O)NCC(=O)NCCOCC(=O)N[C@H](CCCCN)C(N)=O)C(C)C)Cc1ccccc1)[C@@H](C)O | > 30000 nM
3 | CC(C)[C@H](NC(=O)[C@H](Cc1cnc[nH]1)NC(=O)[C@H](Cc1c[nH]c2ccccc12)NC(=O)[C@H](Cc1ccc(O)cc1)NC(=O)[C@H](CS)NC(=O)[C@@H](NC(=O)[C@H](Cc1c[nH]c2ccccc12)NC(=O)[C@@H](NC(=O)[C@H](CCCNC(=N)N)NC(=O)[C@@H](N)CS)[C@@H](C)O)C(C)C)C(=O)N[C@@H](Cc1ccccc1)C(=O)NCC(N)=O (H-CRTWVCYWHVFG-NH2) | > 1000 nM
4 | CC(C)[C@H](NC(=O)[C@H](Cc1c[nH]c2ccccc12)NC(=O)[C@H](CC(=O)O)NC(=O)[C@H](C)NC(=O)[C@@H](N)CS)C(=O)N[C@@H](CS)C(=O)N[C@@H](Cc1ccc(O)cc1)C(=O)N[C@@H](Cc1cccc2ccccc12)C(=O)N[C@@H](Cc1cnc[nH]1)C(=O)N[C@H](C(=O)N[C@@H](Cc1ccccc1)C(=O)O)[C@@H](C)O | > 1000 nM
5 | CC(=O)N[C@@H](CS)C(=O)N[C@@H](CCCNC(=N)N)C(=O)N[C@@H](CC(=O)O)C(=O)N[C@@H](Cc1c[nH]c2ccccc12)C(=O)N[C@@H](CCC(N)=O)C(=O)N[C@@H](CS)C(=O)N[C@@H](Cc1ccc(O)cc1)C(=O)N[C@@H](Cc1c[nH]c2ccccc12)C(=O)N[C@@H](Cc1cnc[nH]1)C(=O)N[C@@H](CCCCN)C(=O)N[C@@H](Cc1ccccc1)C(=O)NCC(=O)NCCOCCC(=O)N[C@H](CCCCN)C(=O)O | < 500 nM
6 | CC(=O)N[C@@H](CS)C(=O)N[C@@H](CCC(N)=O)C(=O)N[C@H](C(=O)N[C@@H](Cc1c[nH]c2ccccc12)C(=O)N[C@@H](CCC(N)=O)C(=O)N[C@@H](CS)C(=O)N[C@@H](Cc1ccc(O)cc1)C(=O)N[C@H](CC(=O)N[C@@H](CCCNC(=N)N)C(=O)N[C@H](C(=O)N[C@@H](CC(N)=O)C(=O)NCC(=O)NCCOCC(=O)N[C@H](CCCCN)C(N)=O)C(C)C)Cc1cccc2ccccc12)[C@@H](C)O | > 30000 nM
7 | CC(=O)N[C@@H](CS)C(=O)N[C@@H](C)C(=O)N[C@@H](CC(=O)O)C(=O)N[C@@H](Cc1c[nH]c2ccccc12)C(=O)N[C@H](C(=O)N[C@@H](CS)C(=O)N[C@@H](Cc1ccc(O)cc1)C(=O)N[C@@H](Cc1c[nH]c2ccccc12)C(=O)N[C@@H](Cc1cnc[nH]1)C(=O)N[C@H](C(=O)N[C@@H](Cc1ccccc1)C(=O)NCC(=O)N[C@@H](C)C(=O)N[C@H](CCCCN)C(=O)O)[C@@H](C)O)C(C)C | < 500 nM
8 | CC(=O)N[C@@H](CS)C(=O)N[C@@H](CCC(N)=O)C(=O)N[C@H](C(=O)N[C@@H](CCCNC(=N)N)C(=O)N[C@@H](CCC(N)=O)C(=O)N[C@@H](CS)C(=O)N[C@@H](Cc1ccc(O)cc1)C(=O)N[C@@H](Cc1c[nH]c2ccccc12)C(=O)N[C@@H](CCC(C)C)C(=O)N[C@@H](CCC(=O)O)C(=O)N[C@@H](CC(N)=O)C(=O)NCC(N)=O)[C@@H](C)O (Ac-CQTRQCYW[hLeu]ENG-NH2) | > 10000 nM
9 | CC(=O)N[C@@H](CS)C(=O)N[C@@H](C)C(=O)N[C@@H](CC(=O)O)C(=O)N[C@@H](Cc1c[nH]c2ccccc12)C(=O)N[C@H](C(=O)N[C@@H](CS)C(=O)N[C@@H](Cc1ccc(O)cc1)C(=O)N[C@@H](Cc1cccc2ccccc12)C(=O)N[C@@H](Cc1cnc[nH]1)C(=O)NC(C)(C)C(=O)N[C@@H](Cc1ccccc1)C(=O)NCC(N)=O)C(C)C | > 1000 nM
10 | CCC(CC)(NC(=O)[C@H](CCCN)NC(=O)[C@H](Cc1c[nH]c2ccccc12)NC(=O)[C@H](Cc1ccc(O)cc1)NC(=O)[C@H](CS)NC(=O)[C@@H](NC(=O)[C@H](Cc1c[nH]c2ccccc12)NC(=O)[C@H](CC(=O)O)NC(=O)[C@H](C)NC(=O)[C@H](CS)NC(C)=O)C(C)C)C(=O)N[C@@H](Cc1ccccc1)C(=O)NCC(=O)NCCOCC(=O)N[C@H](CCCCN)C(N)=O | 6000 nM
11 | CC(=O)NC1CC/C=C\CC(C(=O)N[C@@H](Cc2ccc(O)cc2)C(=O)N[C@@H](Cc2c[nH]c3ccccc23)C(=O)N[C@@H](CCCNC(=N)N)C(=O)N[C@@H](CCCCN)C(=O)N[C@@H](Cc2ccccc2)C(=O)NCC(=O)NCCOCC(=O)N[C@H](CCCCN)C(N)=O)NC(=O)[C@H](CCC(N)=O)NC(=O)[C@H](Cc2c[nH]c3ccccc23)NC(=O)[C@H]([C@@H](C)O)NC(=O)[C@H](CCCNC(=N)N)NC1=O (some centres undefined) | 100 to 1000 nM
12 | CC(=O)N[C@@H](CS)C(=O)N[C@@H](CCC(N)=O)C(=O)N[C@H](C(=O)N[C@@H](Cc1c[nH]c2ccccc12)C(=O)N[C@@H](CCC(N)=O)C(=O)N[C@@H](CS)C(=O)N[C@@H](Cc1ccc(O)cc1)C(=O)N[C@@H](Cc1c[nH]c2ccccc12)C(=O)N[C@H](CCCNC(=N)N)C(=O)N[C@H](CCC(=O)O)C(=O)N[C@@H](CC(N)=O)C(=O)NCC(=O)NCCOCC(=O)N[C@H](CCCCN)C(N)=O)[C@@H](C)O | > 1000 nM
13 | CC(=O)N[C@@H](CS)C(=O)N[C@@H](C)C(=O)N[C@H](C(=O)N[C@@H](Cc1c[nH]c2ccccc12)C(=O)N[C@H](C(=O)N[C@@H](CS)C(=O)N[C@@H](Cc1ccc(O)cc1)C(=O)N[C@@H](Cc1c[nH]c2ccccc12)C(=O)N[C@@H](Cc1cnc[nH]1)C(=O)N[C@H](C(=O)N[C@@H](Cc1ccccc1)C(=O)NCC(N)=O)[C@@H](C)O)C(C)C)[C@@H](C)O | > 1000 nM
14 | CC(=O)N[C@@H](CS)C(=O)N[C@@H](CCC(N)=O)C(=O)N[C@H](C(=O)N[C@@H](Cc1c[nH]c2ccccc12)C(=O)N[C@@H](CCC(N)=O)C(=O)N[C@@H](CS)C(=O)N[C@@H](Cc1ccc(O)cc1)C(=O)N[C@@H](Cc1c[nH]c2ccccc12)C(=O)N[C@@H](CCONC(=N)N)C(=O)N[C@@H](CCC(=O)O)C(=O)N[C@@H](CC(N)=O)C(=O)NCC(=O)NCCOCC(=O)N[C@H](CCCCN)C(N)=O)[C@@H](C)O | < 500 nM
15 | CC(=O)N[C@@H](CS)C(=O)N[C@@H](CCCNC(=N)N)C(=O)N[C@@H](CC(=O)O)C(=O)N[C@@H](Cc1c[nH]c2ccccc12)C(=O)N[C@@H](CCC(N)=O)C(=O)N[C@@H](CS)C(=O)N[C@@H](Cc1ccc(O)cc1)C(=O)N[C@@H](Cc1c[nH]c2ccccc12)C(=O)N[C@H](CCCNC(=N)N)C(=O)N[C@@H](CCCCN)C(=O)N[C@@H](Cc1ccccc1)C(=O)NCC(=O)NCCOCCC(=O)N[C@H](CCCCN)C(N)=O | > 1000 nM
16 | CC(=O)N[C@@H](CS)C(=O)N[C@@H](C)C(=O)N[C@@H](CC(=O)O)C(=O)N[C@@H](Cc1c[nH]c2ccccc12)C(=O)N[C@H](C(=O)N[C@@H](CS)C(=O)N[C@@H](Cc1ccc(O)cc1)C(=O)N[C@@H](Cc1c[nH]c2ccccc12)C(=O)N[C@@H](Cc1cnc[nH]1)C(=O)N[C@H](C(=O)N[C@@H](Cc1ccccc1)C(=O)NCC(=O)NCCOCC(=O)N[C@H](CCCCNC(=O)COCC(=O)NCCCC[C@@H](NC(=O)COCCNC(=O)CNC(=O)[C@H](Cc1ccccc1)NC(=O)[C@@H](NC(=O)[C@H](Cc1cnc[nH]1)NC(=O)[C@H](Cc1c[nH]c2ccccc12)NC(=O)[C@H](Cc1ccc(O)cc1)NC(=O)[C@H](CS)NC(=O)[C@@H](NC(=O)[C@H](Cc1c[nH]c2ccccc12)NC(=O)[C@H](CC(=O)O)NC(=O)[C@H](C)NC(=O)[C@H](CS)NC(C)=O)C(C)C)[C@@H](C)O)C(=O)O)C(=O)O)[C@@H](C)O)C(C)C | 25 to 100 nM
17 | CC(=O)N[C@@H](CS)C(=O)N[C@@H](CCC(N)=O)C(=O)N[C@H](C(=O)N[C@@H](Cc1c[nH]c2ccccc12)C(=O)N[C@@H](CCC(=O)O)C(=O)N[C@@H](CS)C(=O)N[C@@H](Cc1ccc(O)cc1)C(=O)N[C@@H](Cc1c[nH]c2ccccc12)C(=O)N[C@@H](Cc1cnc[nH]1)C(=O)N[C@@H](CC(C)C)C(=O)N[C@@H](Cc1ccc(O)cc1)C(=O)NCC(N)=O)[C@@H](C)O (Ac-CQTWECYWHLYG-NH2) | < 500 nM
18 | CC(=O)NCC(=O)NCC(=O)N[C@H](C(=O)N[C@@H](CCC(=O)O)C(=O)N[C@@H](CS)C(=O)N[C@@H](CC(N)=O)C(=O)N[C@@H](CC(=O)O)C(=O)N[C@@H](Cc1c[nH]c2ccccc12)C(=O)N[C@@H](CCC(N)=O)C(=O)N[C@@H](CS)C(=O)N[C@@H](Cc1ccc(O)cc1)C(=O)N[C@@H](Cc1c[nH]c2ccccc12)C(=O)N[C@@H](Cc1cnc[nH]1)C(=O)N[C@H](C(=O)N[C@@H](Cc1ccccc1)C(=O)NCC(N)=O)[C@@H](C)O)C(C)C (Ac-GGVECNDWQCYWHTFG-NH2) | 500 to 1000 nM
19 | CC(C)CC[C@H](NC(=O)[C@H](Cc1c[nH]c2ccccc12)NC(=O)[C@H](Cc1ccc(O)cc1)NC(=O)[C@H](CS)NC(=O)[C@H](CCC(N)=O)NC(=O)[C@H](Cc1c[nH]c2ccccc12)NC(=O)[C@@H](NC(=O)[C@H](CCC(N)=O)NC(=O)[C@@H](N)CS)[C@@H](C)O)C(=O)N[C@@H](CCC(=O)O)C(=O)N[C@@H](CC(N)=O)C(=O)NCC(=O)NCCOCC(=O)N[C@H](CCCCN)C(N)=O | < 500 nM
